Test results reported in EP0410278A1, “Renin inhibiting aminooligohydroxy-derivatives” (HOECHST AKTIENGESELLSCHAFT, priority 1989, dated 1991).

System: Rhesusaffen
Test: In vivo test in furosemide-pretreated, anaesthetised rhesus monkeys: blood pressure, heart rate, plasma renin activity
Settings: 2 mg/kg i.d. (in 0,1 n Zitronensäure 2 mg/ml); for Änderung PRA [%]: Plasma-Renin-Aktivität
Excerpt: Renin-Hemmer bewirken an salzverarmten Tieren eine Blutdrucksenkung. Da sich menschliches Renin von dem Renin anderer Spezies unterscheidet, werden zum in-vivo-Test von Renin-Hemmern Primaten, wie zum Beispiel Rhesus-Affen, herangezogen.
Primaten-Renin und Human-Renin sind in ihrer Sequenz weitgehend homolog. Durch i.v. Injektion von Furosemid wird eine endogene Renin-Ausschüttung angeregt. Anschließend werden die Testverbindungen verabreicht und ihre Wirkung auf Blutdruck und Herzfrequenz wird gemessen.
6 Rhesusaffen wurden an 6 aufeinanderfolgenden Tagen mit 10 mg/kg·d Furosemid oral vorbehandelt. Am 7. Tag wurden etwa 30 Minuten vor Versuchsbeginn weitere 10 mg/kg Furosemid i.v. verabreicht. Anschließend wurde die Anästhesie mit 20 mg/kg Ketamin i.m. eingeleitet und mit 40 mg/kg Pentobarbiton i.v. fortgesetzt. Ein Seitenarm der Femoralarterie wurde freipräpariert und zur Blutdruckmessung mittels eines Blutdruck-Wandlers (P 23 ID) kanuliert. Blutproben zur Bestimmung der Plasma-Renin-Aktivität wurden über eine Braunüle in der Saphena-Vene abgenommen.
Die Titelverbindung des Beispiels 2 zeigt folgendes Ergebnis: 2 mg/kg i.d. (in 0,1 n Zitronensäure 2 mg/ml)

CC(C)(C)S(=O)(=O)CC(Cc1ccccc1)C(=O)NC(Cc1c[nH]cn1)C(=O)NC(CC1CCCCC1)C(O)C(O)C(O)C(O)CO [Beispiel 2, (2(S)-Benzyl,3-t-butylsulfonyl)propionyl-His-[(D)-Manno-Pentol]]
Blutdruck-Änderung [%] (t 1 min): -0,72%
Puls-Änderung [%] (t 1 min): -1,16%
Blutdruck-Änderung [%] (t 3 min): -8,21%
Puls-Änderung [%] (t 3 min): -1,61%
Blutdruck-Änderung [%] (t 5 min): -11,53%
Puls-Änderung [%] (t 5 min): -2,42%
Blutdruck-Änderung [%] (t 10 min): -11,82%
Puls-Änderung [%] (t 10 min): -2,51%
Blutdruck-Änderung [%] (t 15 min): -12,68%
Puls-Änderung [%] (t 15 min): -3,49%
Blutdruck-Änderung [%] (t 20 min): -13,48%
Puls-Änderung [%] (t 20 min): -1,97%
Blutdruck-Änderung [%] (t 30 min): -16,43%
Puls-Änderung [%] (t 30 min): -1,61%
Blutdruck-Änderung [%] (t 45 min): -12,82%
Puls-Änderung [%] (t 45 min): +0,09%
Blutdruck-Änderung [%] (t 60 min): -13,98%
Puls-Änderung [%] (t 60 min): -0,09%
Puls-Änderung [%] (t 75 min): +1,16%
Puls-Änderung [%] (t 90 min): +3,04%
Änderung PRA [%] (t 15 min): -20%
Änderung PRA [%] (t 30 min): -62%
Änderung PRA [%] (t 45 min): -53%
Änderung PRA [%] (t 60 min): -58%
Änderung PRA [%] (t 90 min): -51%
Änderung PRA [%] (t 120 min): -47%
